Results: patent US6830916B2, “Sphingosine kinase, cloning, expression and methods of use” (priority 2000, dated 2004)
Values belong to the molecule of their own block, whether it stands above or below them.

Tests used:
[1] = target: T1, hSPHK1 (Homo sapiens, UniProt Q9NYA1); experiment: SPHK-dependent phosphorylation of sphingosine analogs and other lipids (substrate specificity of hSPHK1); format: biochemical; conditions: lipid 50 μM, lysates of HEK293 cells transfected with hSPHK1 as enzyme source
T1 construct: to obtain the full-length cDNA of hSPHK1; expressed in transfected cells; host or cells: HEK293
Method: (§1) Cytosolic sphingosine kinase activity was determined with 50 μM sphingosine dissolved in Triton X-100 (final concentration 0.25%) and […] (10 μCi, 1 mM) containing MgCl2 (10 mM). In some studies, sphingosine was added as a complex with bovine serum albumin (BSA). Specific activity was expressed as pmol SPP formed per minute per mg protein.
(§2) HEK293 cells were transfected with hSPHK1 and SPHK-dependent phosphorylation of various sphingosine analogs or other lipids (50 μM) was measured using cell lysates as enzyme source. DAG, diacylglycerol; PI, phosphatidylinositol; C2-CER, N-acetyl—sphingosine. […] SPHK activity in HEK293 cell lysates 24 h after transfection with hSPHK1 was measured with 10 μM […] in the absence or presence of 20 μM and 40 μM DMS or DHS. Data are means±SD and are expressed as percent inhibition.

[2] = target: T1, hSPHK1; experiment: Inhibition of SPHK activity in lysates of HEK293 cells transfected with hSPHK1; format: biochemical; conditions: for inhibition of hSPHK1: 20 μM and 40 μM inhibitor, 10 μM SPP (so in the source), HEK293 lysates 24 h after transfection
Method: as §1, §2

[3] = tested on: mouse melanoma B10 cells; conditions: low nanomolar concentrations of SPP; also SPP immobilized on glass beads; cited from earlier work
[4] = tested on: c-myc-SPHK; experiment: Cytosolic c-myc-SPHK activity in transfected NIH 3T3 fibroblasts; format: cell-based
Method: as §1

[5] = substrate: CCCCCCCCCCCCC/C=C/[C@@H](O)[C@@H](N)CO; experiment: SPHK-dependent phosphorylation of sphingosine analogs and other lipids (substrate specificity of hSPHK1); format: biochemical, human; conditions: other: D-erythro-sphingosine as substrate
Method: as §1, §2

- substrate of hSPHK1 (SPHK-dependent phosphorylation) [1]: not substrates
Molecule: CCCCCCCCCCCCC/C=C/[C@@H](O)[C@H](CO)NC(C)=O [C2-ceramide, N-acetyl—sphingosine]

- substrate of hSPHK1 (SPHK-dependent phosphorylation) ([1]; listed as D-(+)-erythro-trans-isomer of sphingosine): best substrates
Molecule: CCCCCCCCCCCCC/C=C/[C@@H](O)[C@@H](N)CO [D-erythro-sphingosine]
- substrate of hSPHK1 (SPHK-dependent phosphorylation) [1]: more efficiently phosphorylated than sphingamine

- substrate of hSPHK1 (SPHK-dependent phosphorylation) [1]: best substrates
Molecule: CCCCCCCCCCCCCCC[C@H](O)[C@H](N)CO [erythrodihydrosphingosine]

- substrate of hSPHK1 (SPHK-dependent phosphorylation) [1]: not substrates
Molecule: diacylglycerol

- substrate of hSPHK1 (SPHK-dependent phosphorylation) [1]: not substrates
Molecule: phosphatidylinositol

The next lines start with the molecule.

Molecule: CCCCCCCCCCCCCCC[C@H](O)[C@@H](N)CO [DHS, D,L-threo-dihydrosphingosine]
- inhibition of hSPHK1 [2]: inhibited hSPHK1
- inhibition of hSPHK1 ([2]; listed as D,L-threo-dihydro-sphingosine): inhibitors of hSPHK1
- relative inhibitory potency on hSPHK1 ([2]; DHS compared with DMS): slightly more potent thank DMS
- substrate of hSPHK1 (SPHK-dependent phosphorylation) [1]: not substrates

Molecule: CCCCCCCCCCCCC/C=C/[C@@H](O)[C@@H](N)COP(=O)(O)O [SPP, Sphingosine-1-phosphate]
- effect on cell motility [3]: inhibited the motility

Molecule: N,N-dimethylsphingosine [DMS]
- inhibition of hSPHK1 [2]: inhibitors of hSPHK1
- inhibition of hSPHK1 ([2]; listed as CMS): inhibited hSPHK1

Molecule: PDGF
- effect on cytosolic c-myc-SPHK activity [4]: stimulated

B1: hSPHK1 (Homo sapiens) (protein)
chain: MDPAGGPRGVLPRPCRVLVLLNPRGGKGKALQLFRSHVQPLLAEAEISFTLMLTERRNHARELVRSEELGRWDALVVMSGDGLMHEVVNGLMERPDWETAIQKPLCSLPAGSGNALAASLNHYAGYEQVTNEDLLTNCTLLLCRRLLSPMNLLSLHTASGLRLFSVLSLAWGFIADVDLESEKYRRLGEMRFTLGTFLRLAALRTYRGRLAYLPVGRVGSKTPASPVVVQQGPVDAHLVPLEEPVPSHWTVVPDEDFVLVLALLHSHLGSEMFAAPMGRCAAGVMHLFYVRAGVSRAMLLRLFLAMEKGRHMEYECPYLVYVPVVAFRLEPKDGKGVFAVDGELMVSEAVQGQVHPNYFWMVSGCVEPPPSWKPQQMPPPEEPL
notes: to obtain the full-length cDNA of hSPHK1; expressed in transfected cells; host or cells: HEK293
- Km [5]: 5 µM
